According to ChEMBL document CHEMBL5233263 (Eur J Med Chem, 2021):
pEC50, pKi: −log10 of the molar value. Each block holds one compound with its values, some of them ahead of it.

Columns and labels:
[1] = target: 5-hydroxytryptamine receptor 2A (Homo sapiens, UniProt P28223); assay: Binding affinity to 5HT2A receptor (unknown origin) assessed as inhibition constant
D(4) dopamine receptor [2] = target: T1, D(4) dopamine receptor (Homo sapiens, UniProt P21917); assay: Agonist activity at D4R (unknown origin) by camp reporter assay
T1 sequence (P21917 whole entry): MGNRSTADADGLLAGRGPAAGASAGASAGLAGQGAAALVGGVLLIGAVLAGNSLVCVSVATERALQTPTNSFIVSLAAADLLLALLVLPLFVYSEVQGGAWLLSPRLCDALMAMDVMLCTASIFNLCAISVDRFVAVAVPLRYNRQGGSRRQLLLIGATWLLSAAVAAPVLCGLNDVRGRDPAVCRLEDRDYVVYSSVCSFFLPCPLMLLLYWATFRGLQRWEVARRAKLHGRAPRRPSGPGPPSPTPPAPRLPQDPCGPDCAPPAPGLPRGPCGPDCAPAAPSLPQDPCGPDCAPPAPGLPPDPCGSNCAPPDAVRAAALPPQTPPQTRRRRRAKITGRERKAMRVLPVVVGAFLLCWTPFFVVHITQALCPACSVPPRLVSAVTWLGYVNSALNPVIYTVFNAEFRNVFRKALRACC

D(4) dopamine receptor [3] = target: T1, D(4) dopamine receptor; assay: Displacement of [3H]-spiperone from human D4 receptor expressed in CHO cells assessed as inhibition constant; assay type: cell-based
D(4) dopamine receptor [4] = target: T1, D(4) dopamine receptor; assay: Displacement of [3H]-spiperone from human D4 receptor expressed in HEK293 cells assessed as inhibition constant; assay type: cell-based
D(2) dopamine receptor [5] = target: T2, D(2) dopamine receptor (Homo sapiens, UniProt P14416); assay: Binding affinity to D2R (unknown origin) assessed as inhibition constant
D(3) dopamine receptor [6] = target: T3, D(3) dopamine receptor (Homo sapiens, UniProt P35462); assay: Binding affinity to D3R (unknown origin) assessed as inhibition constant
D(3) dopamine receptor [7] = target: T3, D(3) dopamine receptor; assay: Binding affinity to human D3R assessed as inhibition constant
D(2) dopamine receptor [8] = target: T2, D(2) dopamine receptor; assay: Binding affinity to human D2R assessed as inhibition constant
D(4) dopamine receptor [9] = target: T1, D(4) dopamine receptor; assay: Binding affinity to human D4R assessed as inhibition constant
D(4) dopamine receptor [10] = target: T1, D(4) dopamine receptor; assay: (§1) Displacement of [3H]-nemonapride from human D4 receptor expressed in CHO cells assessed as inhibition constant; assay type: cell-based
D(2) dopamine receptor [11] = target: T2, D(2) dopamine receptor; assay: Agonist activity at human D2R expressed in HEK293 cells incubated for 3 mins by FLIPR analysis; assay type: cell-based
[12] = target: T4, D(4) dopamine receptor (Homo sapiens) (UniProt P21917); assay: Agonist activity at human D4R at 10 uM relative to control
T4 sequence (whole entry): T1 sequence (P21917 whole entry)

D(4) dopamine receptor [13] = target: T1, D(4) dopamine receptor; assay: Agonist activity at human D4R
D(4) dopamine receptor [14] = target: T1, D(4) dopamine receptor; assay: Displacement of [3H]-methylspiperone from D4 (unknown origin) receptor expressed in HEK293T cells assessed as inhibition constant; assay type: cell-based
D(3) dopamine receptor [15] = target: T3, D(3) dopamine receptor; assay: Displacement of [3H]-spiperone from human D3 receptor expressed in CHO cells assessed as inhibition constant; assay type: cell-based
[16] = target: T4, D(4) dopamine receptor (Homo sapiens); assay: Agonist activity at human D4R assessed as [35S] GTPgammaS binding relative to control; conditions: filed as agonist
D(4) dopamine receptor [17] = target: T1, D(4) dopamine receptor; assay: Agonist activity at human D4R assessed as [35S] GTPgammaS binding
[18] = target: T4, D(4) dopamine receptor (Homo sapiens); assay: Binding affinity to human D4R at 1 uM relative to control
D(2) dopamine receptor [19] = target: T2, D(2) dopamine receptor; assay: Binding affinity to human D2R assessed as inhibition constant by Cheng-Prusoff equation analysis
[20] = target: T4, D(4) dopamine receptor (Homo sapiens); assay: as §1; assay type: cell-based
D(4) dopamine receptor [21] = target: T1, D(4) dopamine receptor; assay: Binding affinity to D4R (unknown origin) assessed as inhibition constant
D(4) dopamine receptor [22] = target: T1, D(4) dopamine receptor; assay: Agonist activity at D4R (unknown origin)
D(2) dopamine receptor [23] = target: T2, D(2) dopamine receptor; assay: Displacement of [3H]-spiperone from human D2 receptor assessed as inhibition constant
D(4) dopamine receptor [24] = target: T1, D(4) dopamine receptor; assay: Displacement of [3H]-spiperone from human D4 receptor expressed in CHO-K1 cells assessed as inhibition constant measured after 60 mins; assay type: cell-based
D(3) dopamine receptor [25] = target: T3, D(3) dopamine receptor; assay: Displacement of [3H]-spiperone from human D3 receptor assessed as inhibition constant
D(2) dopamine receptor [26] = target: T2, D(2) dopamine receptor; assay: Displacement of [3H]-spiperone from human D2 receptor expressed in Sf9 cells assessed as inhibition constant

T3 sequence (P35462 whole entry): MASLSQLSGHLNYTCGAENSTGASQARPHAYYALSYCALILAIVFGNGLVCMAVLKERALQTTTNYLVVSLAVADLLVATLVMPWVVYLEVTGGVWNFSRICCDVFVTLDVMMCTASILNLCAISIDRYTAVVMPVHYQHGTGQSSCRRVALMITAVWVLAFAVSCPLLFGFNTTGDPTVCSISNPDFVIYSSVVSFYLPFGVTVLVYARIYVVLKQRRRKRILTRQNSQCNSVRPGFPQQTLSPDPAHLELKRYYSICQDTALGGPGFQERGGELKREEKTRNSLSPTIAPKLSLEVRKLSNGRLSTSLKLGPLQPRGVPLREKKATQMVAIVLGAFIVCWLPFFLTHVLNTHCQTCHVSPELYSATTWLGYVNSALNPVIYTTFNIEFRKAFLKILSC
T2 sequence (P14416 whole entry): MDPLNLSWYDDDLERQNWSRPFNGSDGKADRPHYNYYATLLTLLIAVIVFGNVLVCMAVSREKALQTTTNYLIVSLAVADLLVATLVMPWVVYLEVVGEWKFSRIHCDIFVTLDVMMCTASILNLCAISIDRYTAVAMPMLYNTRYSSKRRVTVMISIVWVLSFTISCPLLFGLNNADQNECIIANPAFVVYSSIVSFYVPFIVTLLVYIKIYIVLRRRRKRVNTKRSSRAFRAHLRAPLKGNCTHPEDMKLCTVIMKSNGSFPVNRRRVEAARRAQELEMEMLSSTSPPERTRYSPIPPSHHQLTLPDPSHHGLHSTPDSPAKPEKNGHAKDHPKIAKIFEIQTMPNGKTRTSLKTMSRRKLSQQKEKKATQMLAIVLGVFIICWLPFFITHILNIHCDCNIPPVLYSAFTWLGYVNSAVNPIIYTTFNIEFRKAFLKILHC
5-hydroxytryptamine receptor 2A, sequence (P28223 whole entry): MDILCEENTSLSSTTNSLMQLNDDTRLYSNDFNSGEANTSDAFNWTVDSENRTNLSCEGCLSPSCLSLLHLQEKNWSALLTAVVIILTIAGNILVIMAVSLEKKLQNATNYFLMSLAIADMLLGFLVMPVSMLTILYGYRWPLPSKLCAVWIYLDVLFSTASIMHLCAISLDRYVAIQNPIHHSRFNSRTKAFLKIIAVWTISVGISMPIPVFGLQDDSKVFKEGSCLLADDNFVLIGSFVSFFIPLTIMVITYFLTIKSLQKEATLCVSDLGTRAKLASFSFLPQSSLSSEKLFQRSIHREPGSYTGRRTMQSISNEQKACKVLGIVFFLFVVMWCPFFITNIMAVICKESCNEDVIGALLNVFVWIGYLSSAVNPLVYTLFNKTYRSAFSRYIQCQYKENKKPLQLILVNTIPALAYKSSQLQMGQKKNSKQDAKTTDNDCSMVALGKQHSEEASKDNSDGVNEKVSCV

pKi [1]: 6.99
SMILES: Clc1ccc2c(c1)C(N1CCN(CCc3ccccc3)CC1)=Nc1cccnc1N2

pEC50 (D(4) dopamine receptor [2]): 4.97
SMILES: CCOC(=O)c1nn(-c2ccccc2)cc1CN(C)[C@@H]1CCSC1

pKi (D(4) dopamine receptor [3]): 8.55
SMILES: COc1cc(Cl)ccc1OCC1CN(Cc2ccc(Cl)cc2)CCO1 (centres undefined)

pKi (D(4) dopamine receptor [4]): 8.82
K (D(2) dopamine receptor [5]): > 1700 nM
pKi (D(3) dopamine receptor [6]): 5.49
SMILES: Clc1ccc(OCC2CN(Cc3c[nH]c4ncccc34)CCO2)cc1 (centres undefined)

SMILES: O/N=C/c1c(CN2CCN(c3ccccc3)CC2)[nH]c2ccccc12
pKi (D(4) dopamine receptor [3]): 9.30
pKi (D(3) dopamine receptor [7]): 5.43
pKi (D(2) dopamine receptor [8]): 5.06

pKi (D(4) dopamine receptor [9]): 6.59
pKi (D(4) dopamine receptor [10]): 6.59
pKi (D(2) dopamine receptor [5]): 4.99
SMILES: CCOC(=O)N1CCN(Cc2cnn(-c3ccc(Cl)cc3)c2)CC1

pEC50 (D(2) dopamine receptor [11]): 7.92
SMILES: c1ccc(N2CCN(Cc3nc4ccccc4[nH]3)CC2)nc1 [ABT-724]

SMILES: N#Cc1[nH]c2ccccc2c1CN1CCN(c2ccccc2)CC1
pKi (D(4) dopamine receptor [3]): 9.12
pKi (D(3) dopamine receptor [7]): 5.60
pKi (D(2) dopamine receptor [8]): 5.31

SMILES: Cc1ncc(CN2CC=C(c3ccccc3)CC2)c(N)n1
pKi (D(4) dopamine receptor [3]): 8.28
Emax [12]: 36%
pKi (D(3) dopamine receptor [7]): < 6.00
pKi (D(2) dopamine receptor [8]): < 6.00
pEC50 (D(4) dopamine receptor [13]): 6.69

SMILES: CC(C)N1C[C@H](NC(=O)N2Cc3ccccc3[C@@H]2C)[C@@H](C)C1
pKi (D(4) dopamine receptor [14]): 8.37
pKi (D(2) dopamine receptor [5]): < 5.00
pKi (D(3) dopamine receptor [6]): < 5.00
pEC50 (D(4) dopamine receptor [2]): 9.74

pKi (D(2) dopamine receptor [5]): < 5.00
pKi (D(3) dopamine receptor [6]): 8.85
SMILES: Oc1cccc(OCCNCC2COCC(c3ccccc3)(c3ccccc3)O2)c1 (centres undefined)

pKi (D(3) dopamine receptor [15]): 7.09
Emax [16]: 54%
pEC50 (D(4) dopamine receptor [17]): 8.43
SMILES: COc1ccccc1N1CCN(Cc2ccc3cccccc2-3)CC1

Activity [18]: 81%
SMILES: Clc1ccc2c(c1)N=C(N1CCN(CCCOc3ccccc3)CC1)c1ccccc1N2

pKi (D(2) dopamine receptor [5]): < 5.00
pKi (D(3) dopamine receptor [6]): < 5.00
SMILES: COc1cccc(CCC2=NCCN2CCc2ccccc2)c1

Activity [18]: 78%
SMILES: Clc1ccc2c(c1)N=C(N1CCN(CCCCc3ccncc3)CC1)c1ccccc1N2

pKi (D(2) dopamine receptor [5]): < 5.00
pKi (D(3) dopamine receptor [6]): 5.27
SMILES: CN(C)[C@@H](CNC(=O)NC[C@H]1Cc2ccccc21)CC1CCCCC1

pKi (D(2) dopamine receptor [19]): < 5.23
K [20]: 3.6 nM
SMILES: OCc1ccc(N2CCN(Cc3nc4ccccc4[nH]3)CC2)cc1Cl

pKi (D(2) dopamine receptor [5]): < 5.00
pKi (D(3) dopamine receptor [6]): < 5.00
SMILES: CCOC(=O)c1sc2[nH]cn/c(=N\[C@H]3CCN(CC)C3)c2c1C

pKi (D(2) dopamine receptor [5]): < 5.00
pKi (D(3) dopamine receptor [6]): 7.89
pEC50 (D(4) dopamine receptor [2]): 8.85
SMILES: COc1ccccc1OCCNCC1COCC(c2ccccc2)(c2ccccc2)O1 (centres undefined)

Activity [18]: 82%
SMILES: Clc1ccc2c(c1)N=C(N1CCN(CCCCc3ccccc3)CC1)c1ccccc1N2

SMILES: NS(=O)(=O)c1ccc(N2CCN(CCC3OCCc4ccccc43)CC2)cc1 (centres undefined)
pKi (D(4) dopamine receptor [21]): 8.44
pKi (D(2) dopamine receptor [5]): 5.29
pKi (D(3) dopamine receptor [6]): < 5.56

pEC50 (D(4) dopamine receptor [22]): 4.77
pEC50 (D(4) dopamine receptor [2]): 4.09
SMILES: CC(=O)O[C@H]1CC(C)(C)C(=C=C/C(C)=C/C=C/C(C)=C/C=C/C=C(C)/C=C/C=C(\C)C(=O)C[C@@]23O[C@]2(C)C[C@@H](O)CC3(C)C)[C@](C)(O)C1

pKi (D(2) dopamine receptor [23]): 5.33
pKi (D(4) dopamine receptor [24]): 7.51
pKi (D(3) dopamine receptor [25]): 5.47
SMILES: Clc1ccc2c(c1)N=C(N1CCN(c3ccccc3)CC1)CCN2

pKi (D(4) dopamine receptor [3]): 8.82
pKi (D(3) dopamine receptor [7]): 4.82
pKi (D(2) dopamine receptor [8]): 4.66
SMILES: CCOC(=O)c1[nH]c2ccc(F)cc2c1CN1CCN(c2ccccc2)CC1

pKi (D(4) dopamine receptor [3]): 9.18
pKi (D(3) dopamine receptor [7]): 5.48
pKi (D(2) dopamine receptor [8]): 5.68
SMILES: OCc1[nH]c2ccccc2c1CN1CCN(c2ccccc2)CC1

SMILES: CC(C)Oc1cccnc1N(C)C1CCN(Cc2ccc(I)cc2)CC1
pKi (D(2) dopamine receptor [26]): 6.25
